Data reported in ChEMBL document CHEMBL1201862, “PubChem BioAssay data set” (2004).
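Step 1: Grow cells in 96-well plates. Step 2: Expose to compound for 48 hours at 5 concentrations. Step 3: Interpolate endpoints linearly; if unreached, use highest concentration. At the GI50, growth is halved.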 Calls of active or inactive are those of the source. No stated cut-off is given here; in the data, active = GI50 up to about 1.1 µM and inactive = higher.

How the values were obtained:
Assay in all cases: DTP human tumour cell line panel, 48 h
MDA-MB-435 = test system: MDA-MB-435
HOP-92 = test system: HOP-92
HOP-62 = test system: HOP-62
NCI-H522 = test system: NCI-H522
OVCAR-8 = test system: OVCAR-8
NCI-H226 = test system: NCI-H226
LOX IMVI = test system: LOX IMVI
HL-60 = test system: HL-60
HCT-116 = test system: HCT-116
MDA-N = test system: MDA-N
SF-295 = test system: SF-295
TK-10 = test system: TK-10
Hs-578T = test system: Hs-578T
SK-OV-3 = test system: SK-OV-3
SK-MEL-28 = test system: SK-MEL-28
U-251 = test system: U-251
UACC-62 = test system: UACC-62
CCRF-CEM = test system: CCRF-CEM
HCT-15 = test system: HCT-15
EKVX = test system: EKVX
ACHN = test system: ACHN
CAKI-1 = test system: CAKI-1
UACC-257 = test system: UACC-257
KM12 = test system: KM12
PC-3 = test system: PC-3
M14 = test system: M14
BT-549 = test system: BT-549
T47D = test system: T47D
OVCAR-5 = test system: OVCAR-5
A498 = test system: A498
DU-145 = test system: DU-145
A549 = test system: A549
RXF 393 = test system: RXF 393
SNB-19 = test system: SNB-19
SN12C = test system: SN12C
OVCAR-4 = test system: OVCAR-4
786-0 = test system: 786-0
K562 = test system: K562
SR = test system: SR
IGROV-1 = test system: IGROV-1
OVCAR-3 = test system: OVCAR-3
SW-620 = test system: SW-620
MCF7 = test system: MCF7
SK-MEL-2 = test system: SK-MEL-2
Malme-3M = test system: Malme-3M
HT-29 = test system: HT-29
NCI-H23 = test system: NCI-H23
MDA-MB-231 = test system: MDA-MB-231
UO-31 = test system: UO-31
NCI-H460 = test system: NCI-H460
HCC 2998 = test system: HCC 2998
RPMI-8226 = test system: RPMI-8226
SF-539 = test system: SF-539
COLO 205 = test system: COLO 205
SNB-75 = test system: SNB-75
SK-MEL-5 = test system: SK-MEL-5
SF-268 = test system: SF-268
NCI/ADR-RES = test system: NCI/ADR-RES
MOLT-4 = test system: MOLT-4

COC(=O)C1=C2Nc3ccccc3C23CCN2C(O)C4(CC5CC67CCOC6CCN6CCC8(c9cccc(OC)c9N(C4)C58O)C67)C4OCCC4(C1)C23 (stereo not drawn)
GI50 (MDA-MB-435): 58.7 µM (inactive) | GI50 (HOP-92): 27.2 µM (inactive) | GI50 (HOP-62): 44.2 µM (inactive) | GI50 (NCI-H522): 36.4 µM (inactive) | GI50 (OVCAR-8): 23.5 µM (inactive) | GI50 (NCI-H226): 87.9 µM (inactive) | GI50 (LOX IMVI): 95.5 µM (inactive) | GI50 (HL-60): > 100 µM (inactive) | GI50 (HCT-116): 34.5 µM (inactive) | GI50 (MDA-N): 98.2 µM (inactive) | GI50 (SF-295): 34.6 µM (inactive) | GI50 (TK-10): > 100 µM (inactive) | GI50 (Hs-578T): 22.5 µM (inactive) | GI50 (SK-OV-3): 68.5 µM (inactive) | GI50 (SK-MEL-28): 97.5 µM (inactive) | GI50 (U-251): 35.6 µM (inactive) | GI50 (UACC-62): > 100 µM (inactive) | GI50 (CCRF-CEM): > 100 µM (inactive) | GI50 (HCT-15): > 100 µM | GI50 (EKVX): 52.8 µM (inactive) | GI50 (ACHN): 86.5 µM (inactive) | GI50 (CAKI-1): 25.2 µM (inactive) | GI50 (UACC-257): > 100 µM (inactive) | GI50 (KM12): 78.9 µM (inactive) | GI50 (PC-3): 34.8 µM (inactive) | GI50 (M14): 71.9 µM (inactive) | GI50 (BT-549): > 100 µM (inactive) | GI50 (T47D): 20.3 µM (inactive) | GI50 (OVCAR-5): > 100 µM (inactive) | GI50 (A498): 64.3 µM (inactive) | GI50 (DU-145): 36.3 µM (inactive) | GI50 (A549): > 100 µM (inactive) | GI50 (RXF 393): 49.7 µM (inactive) | GI50 (SNB-19): 45.7 µM (inactive) | GI50 (SN12C): 79.8 µM (inactive) | GI50 (OVCAR-4): 61.9 µM (inactive) | GI50 (786-0): 24.3 µM (inactive) | GI50 (K562): > 100 µM (inactive) | GI50 (SR): 14.7 µM (inactive) | GI50 (IGROV-1): 87.7 µM (inactive) | GI50 (OVCAR-3): > 100 µM (inactive) | GI50 (SW-620): 62.4 µM (inactive) | GI50 (MCF7): 47.2 µM (inactive) | GI50 (SK-MEL-2): 84.1 µM (inactive) | GI50 (Malme-3M): 56.4 µM (inactive) | GI50 (HT-29): > 100 µM (inactive) | GI50 (NCI-H23): > 100 µM (inactive) | GI50 (MDA-MB-231): 15.6 µM (inactive) | GI50 (UO-31): > 100 µM (inactive) | GI50 (NCI-H460): 76.7 µM (inactive) | GI50 (HCC 2998): > 100 µM (inactive) | GI50 (RPMI-8226): > 100 µM (inactive) | GI50 (SF-539): > 100 µM (inactive) | GI50 (COLO 205): > 100 µM (inactive) | GI50 (SNB-75): 23.5 µM (inactive) | GI50 (SK-MEL-5): 49.5 µM (inactive) | GI50 (SF-268): 26.1 µM (inactive)

CC1(C)[C@H]2Cc3cc4nc5ccccn5c4cc3[C@@H]1C2
GI50 (MDA-MB-435): 15.3 µM (inactive) | GI50 (HOP-92): 14.5 µM (inactive) | GI50 (HOP-62): 18.7 µM (inactive) | GI50 (NCI-H522): 4.58 µM (inactive) | GI50 (OVCAR-8): 14.6 µM (inactive) | GI50 (NCI-H226): 16.2 µM (inactive) | GI50 (LOX IMVI): 19.6 µM (inactive) | GI50 (HL-60): 22.4 µM (inactive) | GI50 (HCT-116): 17.5 µM (inactive) | GI50 (MDA-N): 17.3 µM (inactive) | GI50 (SF-295): 15.2 µM (inactive) | GI50 (TK-10): 16.3 µM (inactive) | GI50 (Hs-578T): 15.6 µM (inactive) | GI50 (SK-OV-3): 17.3 µM (inactive) | GI50 (SK-MEL-28): 16 µM (inactive) | GI50 (U-251): 15.7 µM (inactive) | GI50 (UACC-62): 15.6 µM (inactive) | GI50 (NCI/ADR-RES): 18.2 µM (inactive) | GI50 (CCRF-CEM): 31.3 µM (inactive) | GI50 (HCT-15): 19.2 µM | GI50 (EKVX): 15.9 µM (inactive) | GI50 (ACHN): 18.7 µM (inactive) | GI50 (CAKI-1): 14.1 µM (inactive) | GI50 (UACC-257): 17.6 µM (inactive) | GI50 (KM12): 18.6 µM (inactive) | GI50 (PC-3): 17.9 µM (inactive) | GI50 (M14): 19.8 µM (inactive) | GI50 (BT-549): 24.9 µM (inactive) | GI50 (T47D): 20.7 µM (inactive) | GI50 (OVCAR-5): 13.9 µM (inactive) | GI50 (DU-145): 20.8 µM (inactive) | GI50 (A549): 16.4 µM (inactive) | GI50 (SNB-19): 16 µM (inactive) | GI50 (SN12C): 19.2 µM (inactive) | GI50 (OVCAR-4): 12 µM (inactive) | GI50 (786-0): 17.2 µM (inactive) | GI50 (K562): 19.8 µM (inactive) | GI50 (IGROV-1): 19 µM (inactive) | GI50 (OVCAR-3): 17.5 µM (inactive) | GI50 (SW-620): 20.8 µM (inactive) | GI50 (MCF7): 3.37 µM (inactive) | GI50 (SK-MEL-2): 15.5 µM (inactive) | GI50 (Malme-3M): 12.4 µM (inactive) | GI50 (HT-29): 14.1 µM (inactive) | GI50 (NCI-H23): 17 µM (inactive) | GI50 (MDA-MB-231): 13 µM (inactive) | GI50 (MOLT-4): 27.1 µM (inactive) | GI50 (UO-31): 14 µM (inactive) | GI50 (NCI-H460): 18.4 µM (inactive) | GI50 (HCC 2998): 18.3 µM (inactive) | GI50 (RPMI-8226): 14.5 µM (inactive) | GI50 (SF-539): 16.4 µM (inactive) | GI50 (COLO 205): 18.4 µM (inactive) | GI50 (SNB-75): 13.6 µM (inactive) | GI50 (SK-MEL-5): 17.6 µM (inactive) | GI50 (SF-268): 17.6 µM (inactive)
